Laboratory results: the CombiSolv-Exp solvation set (Vermeire and Green 2021)

Experiment: solvent given as SMILES
[1] = in CCCCCCCCC=CCCCCCCCC(=O)OCC(COC(=O)CCCCCCCC=CCCCCCCCC)OC(=O)CCCCCCCC=CCCCCCCCC

With `N#Cc1ccccc1` the “solvation free energy, 298 K” value (in CCCCCCC) was -5.33 kcal/mol, the “solvation free energy, 298 K” value (in CCCCCCCCO) was -6 kcal/mol and the “solvation free energy, 298 K” value (in O) was -4.11 kcal/mol. For the same molecule, the “solvation free energy, 298 K” value (in [2H]O[2H]) was -3.82 kcal/mol.

For `C1COCCN1`, the “solvation free energy, 298 K” value (in C1COCCO1) was -5.72 kcal/mol and the “solvation free energy, 298 K” value (in O) was -7.17 kcal/mol.

With `C=C(C)C1CC=C(C)C(OC(=O)CC)C1` (stereo not drawn) the “solvation free energy, 298 K” value (in O) was -3.87 kcal/mol.

With `C=C1CCC2(C(C)C)CC12` (stereo not drawn) the “solvation free energy, 298 K” value (in O) was 0.49 kcal/mol.

In the case of `C1CCCCCCC1`, the “solvation free energy, 298 K” value (in CCCCCCCCCCCCCCCC) was -5.55 kcal/mol, the “solvation free energy, 298 K” value (in CN1CCCC1=O) was -4.77 kcal/mol and the “solvation free energy, 298 K” value (in CN(C)C=O) was -4.39 kcal/mol. The “solvation free energy, 298 K” value (in COCCO) was -4.52 kcal/mol, the “solvation free energy, 298 K” value (in CS(C)=O) was -3.85 kcal/mol and the “solvation free energy, 298 K” value (in N#CCCCCC#N) was -4.01 kcal/mol. For the same molecule, the “solvation free energy, 298 K” value (in NCCO) was -3 kcal/mol and the “solvation free energy, 298 K” value (in O) was 0.91 kcal/mol.

For `CCCCCCCCCCCCO`, the “solvation free energy, 298 K” value (in CC(C)CC(C)(C)C) was -8.62 kcal/mol, the “solvation free energy, 298 K” value (in CCCCCC) was -9.26 kcal/mol and the “solvation free energy, 298 K” value [1] was -10.2 kcal/mol.

With `CC(C)(C)OC(=O)c1ccccc1C(=O)OC(C)(C)C` the “solvation free energy, 298 K” value (in O) was -7.09 kcal/mol.

With `Cc1ccccc1C(C)C` the “solvation free energy, 298 K” value (in O) was -0.82 kcal/mol.

In the case of `FCF`, the “solvation free energy, 298 K” value (in CCCCCCCCC) was -0.37 kcal/mol, the “solvation free energy, 298 K” value (in CCCCCCCCO) was -0.57 kcal/mol and the “solvation free energy, 298 K” value (in CN1CCCC1=O) was -1.69 kcal/mol. The “solvation free energy, 298 K” value (in CN(C)C=O) was -1.69 kcal/mol and the “solvation free energy, 298 K” value (in O) was -0.33 kcal/mol.

With `COC(=O)c1ccc(N(C)C)cc1` the “solvation free energy, 298 K” value (in CN(C)C=O) was -11.9 kcal/mol and the “solvation free energy, 298 K” value (in O) was -7.01 kcal/mol.

For `CC=CC=O`, the “solvation free energy, 298 K” value (in O=CN1CCOCC1) was -4.69 kcal/mol.

For `O=C(O)CCC(=O)O`, the “solvation free energy, 298 K” value (in CC(C)O) was -12.3 kcal/mol, the “solvation free energy, 298 K” value (in CCCO) was -12.2 kcal/mol and the “solvation free energy, 298 K” value (in CCO) was -12.6 kcal/mol. The “solvation free energy, 298 K” value (in O) was -12.6 kcal/mol and the “solvation free energy, 298 K” value (in O=C1CCCCC1) was -11.7 kcal/mol.

With `O=C(O)Cc1ccccc1Nc1c(Cl)cccc1Cl` the “solvation free energy, 298 K” value (in C1COCCO1) was -19.7 kcal/mol, the “solvation free energy, 298 K” value (in CCCCCO) was -18.4 kcal/mol and the “solvation free energy, 298 K” value (in CCO) was -18.5 kcal/mol. For the same molecule, the “solvation free energy, 298 K” value (in CN(C)C=O) was -20 kcal/mol, the “solvation free energy, 298 K” value (in CO) was -18.5 kcal/mol and the “solvation free energy, 298 K” value (in Clc1ccccc1) was -17.7 kcal/mol. The “solvation free energy, 298 K” value (in NC=O) was -17.8 kcal/mol.

For `OCCc1ccccc1`, the “solvation free energy, 298 K” value (in O) was -6.79 kcal/mol.

For `CC1=CC=C(C(C)C)CC1`, the “solvation free energy, 298 K” value (in O) was 0.12 kcal/mol.

With `ClC1=C(Cl)C2(Cl)C3C4OC4C(Cl)C3C1(Cl)C2(Cl)Cl` (stereo not drawn) the “solvation free energy, 298 K” value [1] was -13 kcal/mol and the “solvation free energy, 298 K” value (in CCCCCCCCO) was -11.7 kcal/mol.

For `O=C(Oc1ccccc1)Oc1ccccc1`, the “solvation free energy, 298 K” value (in CC(C)CO) was -11.2 kcal/mol, the “solvation free energy, 298 K” value (in CC(C)O) was -11.3 kcal/mol and the “solvation free energy, 298 K” value (in CCC(C)O) was -11.2 kcal/mol. For the same molecule, the “solvation free energy, 298 K” value (in CCCCO) was -11.4 kcal/mol, the “solvation free energy, 298 K” value (in CCCO) was -11.5 kcal/mol and the “solvation free energy, 298 K” value (in CCO) was -11.6 kcal/mol. For the same molecule, the “solvation free energy, 298 K” value (in CO) was -11.8 kcal/mol.

For `Nc1ccc(S(=O)(=O)Nc2nccs2)cc1`, the “solvation free energy, 298 K” value (in O) was -18.2 kcal/mol.

For `CC(C)Cc1ccccc1`, the “solvation free energy, 298 K” value (in O) was 0.19 kcal/mol.

For `COc1cccc(N)c1`, the “solvation free energy, 298 K” value (in O) was -7.29 kcal/mol.

For `C=CC(C)(CCC=C(C)C)OC(=O)CC` (stereo not drawn), the “solvation free energy, 298 K” value (in O) was -3.26 kcal/mol.

With `ClC(Cl)(Cl)C(Cl)(Cl)Cl` the “solvation free energy, 298 K” value [1] was -5.42 kcal/mol and the “solvation free energy, 298 K” value (in CCCCCCCCO) was -6.1 kcal/mol.

With `Nc1ccc(C(=O)O)cc1` the “solvation free energy, 298 K” value (in C1COCCO1) was -14.6 kcal/mol, the “solvation free energy, 298 K” value (in CC(C)CCO) was -13.7 kcal/mol and the “solvation free energy, 298 K” value (in CC(C)CO) was -13.8 kcal/mol. For the same molecule, the “solvation free energy, 298 K” value (in CC(C)O) was -14.2 kcal/mol, the “solvation free energy, 298 K” value (in CCC(C)O) was -14 kcal/mol and the “solvation free energy, 298 K” value (in CCCC(C)O) was -13.9 kcal/mol. For the same molecule, the “solvation free energy, 298 K” value (in CCCCCCCCCCO) was -13.3 kcal/mol, the “solvation free energy, 298 K” value (in CCCCCCCCO) was -13.5 kcal/mol and the “solvation free energy, 298 K” value (in CCCCCCCO) was -13.7 kcal/mol. The “solvation free energy, 298 K” value (in CCCCCCO) was -13.8 kcal/mol, the “solvation free energy, 298 K” value (in CCCCCO) was -13.9 kcal/mol and the “solvation free energy, 298 K” value (in CCCCO) was -14.1 kcal/mol. The “solvation free energy, 298 K” value (in CCCO) was -14.3 kcal/mol, the “solvation free energy, 298 K” value (in CCO) was -14.6 kcal/mol and the “solvation free energy, 298 K” value (in CCOCC) was -13.6 kcal/mol.

In the case of `COc1ccc(C(c2ccc(OC)cc2)C(Cl)(Cl)Cl)cc1`, the “solvation free energy, 298 K” value (in O) was -6.93 kcal/mol.

For `CC1CO1` (stereo not drawn), the “solvation free energy, 298 K” value (in CC=O) was -3.7 kcal/mol.

For `CC(=O)c1cccnc1`, the “solvation free energy, 298 K” value (in O) was -8.26 kcal/mol.

In the case of `Clc1ccc(Cl)c(Cl)c1`, the “solvation free energy, 298 K” value (in CCCCCC) was -6.98 kcal/mol and the “solvation free energy, 298 K” value (in O) was -1.16 kcal/mol.

For `Oc1ccccc1`, the “solvation free energy, 298 K” value (in CC(C)CC(C)(C)C) was -5.23 kcal/mol, the “solvation free energy, 298 K” value (in CCCCCCC) was -4.97 kcal/mol and the “solvation free energy, 298 K” value (in CCCCCCCCCC) was -5.49 kcal/mol. The “solvation free energy, 298 K” value (in Cc1ccc(C)cc1) was -6.77 kcal/mol, the “solvation free energy, 298 K” value (in Cc1cccc(C)c1) was -6.78 kcal/mol and the “solvation free energy, 298 K” value (in Cc1ccccc1C) was -6.84 kcal/mol. For the same molecule, the “solvation free energy, 298 K” value (in O) was -6.62 kcal/mol.

For `CCCC(=O)OC`, the “solvation free energy, 298 K” value (in CCCO) was -4.47 kcal/mol, the “solvation free energy, 298 K” value (in CO) was -4.84 kcal/mol and the “solvation free energy, 298 K” value (in O) was -2.84 kcal/mol.

For `ClC1=C(Cl)C2(Cl)C3C(Cl)C=CC3C1(Cl)C2(Cl)Cl` (stereo not drawn), the “solvation free energy, 298 K” value [1] was -13.5 kcal/mol, the “solvation free energy, 298 K” value (in CCCCCCCCO) was -10.6 kcal/mol and the “solvation free energy, 298 K” value (in O) was -2.55 kcal/mol.

In the case of `C1COCCOCCOCCOCCOCCO1`, the “solvation free energy, 298 K” value (in Cc1cccc(C)c1) was -12.9 kcal/mol and the “solvation free energy, 298 K” value (in O) was -15.6 kcal/mol.
